Measured values published in PubChem BioAssay (NCI).
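Abbreviation: GI50, concentration required for 50% inhibition of growth. The concentration for full growth arrest is given as TGI.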

What was measured:
Assay in all cases: inhibition of tumour cell growth, NCI panel, 384-well format
A498 renal = tested on: A498 renal
ACHN renal = tested on: ACHN renal
HCC-2998 colon = tested on: HCC-2998 colon
UACC-257 melanoma = tested on: UACC-257 melanoma
NCI-H226 lung = tested on: NCI-H226 lung
COLO 205 colon = tested on: COLO 205 colon
MALME-3M melanoma = tested on: MALME-3M melanoma
UO-31 renal = tested on: UO-31 renal
HOP-92 NSCLC = tested on: HOP-92 NSCLC
SF-295 CNS = tested on: SF-295 CNS
MDA-MB-231 breast = tested on: MDA-MB-231 breast
OVCAR-5 ovarian = tested on: OVCAR-5 ovarian
SF-539 CNS = tested on: SF-539 CNS
HT29 colon = tested on: HT29 colon
DU-145 prostate = tested on: DU-145 prostate
SK-OV-3 ovarian = tested on: SK-OV-3 ovarian
MOLT-4 leukemia = tested on: MOLT-4 leukemia
HOP-62 NSCLC = tested on: HOP-62 NSCLC
NCI/ADR-RES ovarian = tested on: NCI/ADR-RES ovarian
HCT-116 colon = tested on: HCT-116 colon
NCI-H522 lung = tested on: NCI-H522 lung
LOX IMVI melanoma = tested on: LOX IMVI melanoma
CCRF-CEM leukemia = tested on: CCRF-CEM leukemia
PC-3 prostate = tested on: PC-3 prostate
SN12C renal = tested on: SN12C renal
SNB-19 CNS = tested on: SNB-19 CNS
EKVX NSCLC = tested on: EKVX NSCLC
SK-MEL-5 melanoma = tested on: SK-MEL-5 melanoma
SNB-75 CNS = tested on: SNB-75 CNS
IGROV1 ovarian = tested on: IGROV1 ovarian
NCI-H460 NSCLC = tested on: NCI-H460 NSCLC
U251 glioblastoma = tested on: U251 glioblastoma
OVCAR-3 ovarian = tested on: OVCAR-3 ovarian
OVCAR-8 ovarian = tested on: OVCAR-8 ovarian
BT-549 breast = tested on: BT-549 breast
HL-60(TB) leukemia = tested on: HL-60(TB) leukemia
K-562 leukemia = tested on: K-562 leukemia
KM12 colon = tested on: KM12 colon
UACC-62 melanoma = tested on: UACC-62 melanoma
NCI-H23 lung = tested on: NCI-H23 lung
T-47D breast = tested on: T-47D breast
MDA-MB-435 melanoma = tested on: MDA-MB-435 melanoma
SF-268 CNS = tested on: SF-268 CNS
786-0 renal = tested on: 786-0 renal
M14 melanoma = tested on: M14 melanoma
NCI-H322M lung = tested on: NCI-H322M lung
HS 578T breast = tested on: HS 578T breast

## CC(C)C[C@H](NC(=O)[C@H](Cc1ccccc1)NC(=O)c1cnccn1)B(O)O
A498 renal
  GI50: < 10 nM
  TGI: < 12.4 nM
ACHN renal
  GI50: < 10 nM
  TGI: < 10 nM
HCC-2998 colon
  GI50: < 11.8 nM
  TGI: < 16.5 nM
UACC-257 melanoma
  GI50: < 10 nM
  TGI: < 10 nM
NCI-H226 lung
  GI50: < 10 nM
  TGI: < 10 nM
COLO 205 colon
  GI50: < 10 nM
  TGI: 54 nM
MALME-3M melanoma
  GI50: < 10 nM
  TGI: < 10 nM
UO-31 renal
  GI50: < 10 nM
  TGI: < 10 nM
HOP-92 NSCLC
  GI50: < 10 nM
  TGI: < 10 nM
SF-295 CNS
  GI50: < 10 nM
  TGI: < 10 nM
MDA-MB-231 breast
  GI50: < 10 nM
  TGI: < 10 nM
OVCAR-5 ovarian
  GI50: < 10 nM
  TGI: < 16.3 nM
SF-539 CNS
  GI50: < 10 nM
  TGI: < 10 nM
HT29 colon
  GI50: < 10 nM
  TGI: < 10 nM
DU-145 prostate
  GI50: < 10 nM
  TGI: < 13.8 nM
SK-OV-3 ovarian
  GI50: < 10 nM
  TGI: 30.3 nM
MOLT-4 leukemia
  GI50: < 10 nM
  TGI: < 10 nM
HOP-62 NSCLC
  GI50: < 10 nM
  TGI: < 12.5 nM
NCI/ADR-RES ovarian
  GI50: 32.1 nM
  TGI: 92.6 nM
HCT-116 colon
  GI50: < 10 nM
  TGI: < 10 nM
NCI-H522 lung
  GI50: < 10 nM
  TGI: < 10 nM
LOX IMVI melanoma
  GI50: < 10 nM
  TGI: 15.9 nM
CCRF-CEM leukemia
  GI50: < 10 nM
  TGI: < 10 nM
PC-3 prostate
  GI50: < 10 nM
  TGI: < 13.7 nM
SN12C renal
  GI50: < 10.8 nM
  TGI: 18.9 nM
SNB-19 CNS
  GI50: < 10 nM
  TGI: < 15.8 nM
EKVX NSCLC
  GI50: < 10 nM
  TGI: < 19 nM
SK-MEL-5 melanoma
  GI50: < 10 nM
  TGI: < 10 nM
SNB-75 CNS
  GI50: < 10 nM
  TGI: < 10 nM
IGROV1 ovarian
  GI50: < 11 nM
  TGI: < 16 nM
NCI-H460 NSCLC
  GI50: < 13 nM
  TGI: 19.9 nM
U251 glioblastoma
  GI50: < 11.1 nM
  TGI: 18.9 nM
OVCAR-3 ovarian
  GI50: < 10 nM
  TGI: < 10 nM
OVCAR-8 ovarian
  GI50: < 11.1 nM
  TGI: < 15.8 nM
BT-549 breast
  GI50: < 10 nM
  TGI: < 10 nM
HL-60(TB) leukemia
  GI50: < 10 nM
  TGI: < 10 nM
K-562 leukemia
  GI50: < 10 nM
  TGI: < 10 nM
KM12 colon
  GI50: < 10 nM
  TGI: < 12.9 nM
UACC-62 melanoma
  GI50: < 10 nM
  TGI: < 10 nM
NCI-H23 lung
  GI50: < 10 nM
  TGI: < 10 nM
T-47D breast
  GI50: < 10 nM
  TGI: < 10 nM
MDA-MB-435 melanoma
  GI50: < 10 nM
  TGI: < 10 nM
SF-268 CNS
  GI50: < 10 nM
  TGI: < 10 nM
786-0 renal
  GI50: < 10 nM
  TGI: < 11.3 nM
M14 melanoma
  GI50: < 10 nM
  TGI: < 10 nM
NCI-H322M lung
  GI50: 17.7 nM
  TGI: 91.8 nM
HS 578T breast
  GI50: < 10 nM
  TGI: < 10 nM
